Read-outs that look alike come from different tables or passages of the source.
Assays:
DDR2 = DDR2 (Homo sapiens, UniProt Q16832); assay: Kinase selectivity profiling
JNK1 = JNK1 (Homo sapiens, UniProt P45983); assay: Kinase selectivity profiling
PAK2 = PAK2 (Homo sapiens, UniProt Q13177); assay: Kinase selectivity profiling
HPK1 = HPK1 (Homo sapiens, UniProt Q92918); assay: Kinase selectivity profiling
[1] = In vitro plasma stability study; format: in vitro ADME; settings: for half-life at 2 µg/mL: 37°C, read-out: in vitro t1/2 (converted); for R squared / Slope: linear regression 0–10 h
Description: The incubation was terminated by the addition of 300 µL of acetonitrile containing 50 ng/mL roblitinib as internal standard. After vortex and centrifugation, the supernatant was analyzed using ultraperformance liquid chromatography-tandem mass spectrometry.

CHK2 = CHK2 (Homo sapiens, UniProt O96017); assay: Kinase selectivity profiling
Erk5 = Erk5 (Homo sapiens, UniProt Q13164); assay: Kinase selectivity profiling
PIM2 = PIM2 (Homo sapiens, UniProt Q9P1W9); assay: Kinase selectivity profiling
FGR = FGR (Homo sapiens, UniProt P09769); assay: Kinase selectivity profiling
FYNb = FYNb (Homo sapiens, UniProt P06241); assay: Kinase selectivity profiling
PIM3 = PIM3 (Homo sapiens, UniProt Q86V86); assay: Kinase selectivity profiling
EPHA1 = EPHA1 (Homo sapiens, UniProt P21709); assay: Kinase selectivity profiling
HIPK3 = HIPK3 (Homo sapiens, UniProt Q9H422); assay: Kinase selectivity profiling
TGFbR1 = TGFbR1 (Homo sapiens, UniProt P36897); assay: Kinase selectivity profiling
TRKB = TRKB (Homo sapiens, UniProt Q16620); assay: Kinase selectivity profiling
GSK3α = GSK3α (Homo sapiens, UniProt P49840); assay: Kinase selectivity profiling
KHS = KHS (Homo sapiens, UniProt Q9Y4K4); assay: Kinase selectivity profiling
AKT1 = AKT1 (Homo sapiens, UniProt P31749); assay: Kinase selectivity profiling
CDK2/CycA2 = CDK2/CycA2 (Homo sapiens, UniProt P24941); assay: Kinase selectivity profiling
YSK1 = YSK1 (Homo sapiens, UniProt O00506); assay: Kinase selectivity profiling
SRM = SRM (Homo sapiens, UniProt Q9H3Y6); assay: Kinase selectivity profiling
Pkca = Pkca (Homo sapiens, UniProt P17252); assay: Kinase selectivity profiling
ROCK1 = ROCK1 (Homo sapiens, UniProt Q13464); assay: Kinase selectivity profiling
EGFR = EGFR (Homo sapiens, UniProt P00533); assay: Kinase selectivity profiling
MAPKAPK2 = MAPKAPK2 (Homo sapiens, UniProt P49137); assay: Kinase selectivity profiling
MET = MET (Homo sapiens, UniProt P08581); assay: Kinase selectivity profiling
Hep3B = Hep3B viability assay; format: cell-based; settings: Homo sapiens, FGF19-overexpressing HCC cell line, 72 h, CCK-8
Description: Hep3B (ThermoFisher Scientific, 11965, America) and Huh7 (ThermoFisher Scientific, 11095, America) cells were seeded into 96-well plates at 4000 cells/well and 2000 cells/well, respectively. […] Cell viabilities were measured by a CCK-8 kit (Vazyme, China). The IC50 values were calculated using GraphPad Prism software.

Her4(ERBB4) = Her4(ERBB4) (Homo sapiens, UniProt Q15303); assay: Kinase selectivity profiling
LCK = LCK (Homo sapiens, UniProt P06239); assay: Kinase selectivity profiling
ABL2 = ABL2 (Homo sapiens, UniProt P42684); assay: Kinase selectivity profiling
BRAF = BRAF (Homo sapiens, UniProt P15056); assay: Kinase selectivity profiling
NPM1-ALK = NPM1-ALK (Homo sapiens, UniProt P06748+Q9UM73); assay: Kinase selectivity profiling
FGFR3 = FGFR3 (Homo sapiens, UniProt P22607); assay: Kinase selectivity profiling
CDK6/CycD1 = CDK6/CycD1 (Homo sapiens, UniProt Q00534); assay: Kinase selectivity profiling
FLT1 (VEGFR1) = FLT1 (VEGFR1) (Homo sapiens, UniProt P17948); assay: Kinase selectivity profiling
EPHA6 = EPHA6 (Homo sapiens, UniProt Q9UF33); assay: Kinase selectivity profiling
PIK3CB/PIK3R1 = PIK3CB/PIK3R1 (Homo sapiens, UniProt P42338); assay: Kinase selectivity profiling

Sequence of Her4(ERBB4) (Q15303 26-1308): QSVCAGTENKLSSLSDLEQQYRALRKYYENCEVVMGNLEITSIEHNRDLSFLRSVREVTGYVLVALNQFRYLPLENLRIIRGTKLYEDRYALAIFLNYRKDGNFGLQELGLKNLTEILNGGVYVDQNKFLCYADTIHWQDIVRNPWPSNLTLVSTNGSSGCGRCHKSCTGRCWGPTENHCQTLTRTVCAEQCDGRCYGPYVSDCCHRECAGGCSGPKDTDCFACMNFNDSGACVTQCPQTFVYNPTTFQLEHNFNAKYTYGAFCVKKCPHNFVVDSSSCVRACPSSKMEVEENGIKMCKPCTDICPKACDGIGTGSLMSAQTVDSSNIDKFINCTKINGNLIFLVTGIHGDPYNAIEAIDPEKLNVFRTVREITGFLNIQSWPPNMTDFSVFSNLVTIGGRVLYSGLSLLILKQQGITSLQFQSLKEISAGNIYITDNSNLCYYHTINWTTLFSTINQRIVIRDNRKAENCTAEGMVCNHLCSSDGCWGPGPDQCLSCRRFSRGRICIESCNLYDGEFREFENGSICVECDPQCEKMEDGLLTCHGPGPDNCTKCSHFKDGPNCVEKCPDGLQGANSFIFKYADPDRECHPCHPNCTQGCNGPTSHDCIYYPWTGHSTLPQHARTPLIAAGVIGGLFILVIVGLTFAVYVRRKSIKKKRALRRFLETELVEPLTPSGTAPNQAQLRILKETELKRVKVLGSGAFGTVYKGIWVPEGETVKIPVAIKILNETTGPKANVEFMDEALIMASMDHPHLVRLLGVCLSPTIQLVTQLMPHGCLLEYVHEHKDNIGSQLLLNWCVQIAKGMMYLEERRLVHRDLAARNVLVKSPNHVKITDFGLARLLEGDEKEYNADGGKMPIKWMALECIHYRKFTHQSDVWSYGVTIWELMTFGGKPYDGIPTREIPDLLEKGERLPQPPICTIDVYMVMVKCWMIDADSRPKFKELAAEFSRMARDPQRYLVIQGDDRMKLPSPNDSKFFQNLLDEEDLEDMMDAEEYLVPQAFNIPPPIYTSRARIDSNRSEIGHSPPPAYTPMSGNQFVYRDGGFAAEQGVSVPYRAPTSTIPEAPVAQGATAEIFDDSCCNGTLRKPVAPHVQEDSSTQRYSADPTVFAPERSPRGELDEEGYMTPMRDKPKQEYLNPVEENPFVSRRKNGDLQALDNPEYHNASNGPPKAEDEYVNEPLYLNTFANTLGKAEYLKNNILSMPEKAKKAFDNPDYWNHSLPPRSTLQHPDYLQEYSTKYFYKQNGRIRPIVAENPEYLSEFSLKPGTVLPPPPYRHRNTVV
Sequence of BRAF (P15056 whole entry): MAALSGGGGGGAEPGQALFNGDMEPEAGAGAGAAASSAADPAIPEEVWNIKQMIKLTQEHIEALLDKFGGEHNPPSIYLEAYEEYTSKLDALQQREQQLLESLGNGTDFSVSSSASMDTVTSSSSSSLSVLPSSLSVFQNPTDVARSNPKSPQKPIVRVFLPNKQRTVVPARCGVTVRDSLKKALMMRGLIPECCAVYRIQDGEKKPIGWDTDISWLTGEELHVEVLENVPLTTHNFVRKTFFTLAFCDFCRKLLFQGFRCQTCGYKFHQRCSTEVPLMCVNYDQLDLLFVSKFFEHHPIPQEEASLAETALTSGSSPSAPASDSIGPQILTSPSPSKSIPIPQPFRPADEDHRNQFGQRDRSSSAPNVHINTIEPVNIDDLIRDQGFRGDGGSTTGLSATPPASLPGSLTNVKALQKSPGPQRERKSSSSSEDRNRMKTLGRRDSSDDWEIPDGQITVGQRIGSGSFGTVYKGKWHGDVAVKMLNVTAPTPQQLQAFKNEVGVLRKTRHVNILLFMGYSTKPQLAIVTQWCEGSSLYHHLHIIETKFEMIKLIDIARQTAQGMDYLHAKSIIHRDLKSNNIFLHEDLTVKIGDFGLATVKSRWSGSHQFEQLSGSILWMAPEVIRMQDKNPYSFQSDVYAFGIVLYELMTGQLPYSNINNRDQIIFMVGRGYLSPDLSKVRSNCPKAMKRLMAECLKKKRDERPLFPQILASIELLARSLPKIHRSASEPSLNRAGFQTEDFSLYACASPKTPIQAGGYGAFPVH
Sequence of LCK (P06239 whole entry): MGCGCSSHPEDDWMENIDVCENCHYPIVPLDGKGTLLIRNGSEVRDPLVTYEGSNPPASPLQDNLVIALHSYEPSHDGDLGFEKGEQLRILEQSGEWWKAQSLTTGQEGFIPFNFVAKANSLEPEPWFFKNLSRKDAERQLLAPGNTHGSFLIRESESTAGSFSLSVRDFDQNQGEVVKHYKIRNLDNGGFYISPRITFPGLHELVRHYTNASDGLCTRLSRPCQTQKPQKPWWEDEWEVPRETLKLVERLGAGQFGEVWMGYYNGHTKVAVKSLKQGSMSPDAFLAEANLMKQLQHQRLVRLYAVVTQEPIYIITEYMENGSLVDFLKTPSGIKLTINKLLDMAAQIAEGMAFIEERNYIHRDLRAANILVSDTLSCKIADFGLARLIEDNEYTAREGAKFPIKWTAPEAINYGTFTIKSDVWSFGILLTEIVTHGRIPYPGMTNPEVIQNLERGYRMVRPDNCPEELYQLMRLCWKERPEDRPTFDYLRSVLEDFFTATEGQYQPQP
Sequence of GSK3α (P49840 whole entry): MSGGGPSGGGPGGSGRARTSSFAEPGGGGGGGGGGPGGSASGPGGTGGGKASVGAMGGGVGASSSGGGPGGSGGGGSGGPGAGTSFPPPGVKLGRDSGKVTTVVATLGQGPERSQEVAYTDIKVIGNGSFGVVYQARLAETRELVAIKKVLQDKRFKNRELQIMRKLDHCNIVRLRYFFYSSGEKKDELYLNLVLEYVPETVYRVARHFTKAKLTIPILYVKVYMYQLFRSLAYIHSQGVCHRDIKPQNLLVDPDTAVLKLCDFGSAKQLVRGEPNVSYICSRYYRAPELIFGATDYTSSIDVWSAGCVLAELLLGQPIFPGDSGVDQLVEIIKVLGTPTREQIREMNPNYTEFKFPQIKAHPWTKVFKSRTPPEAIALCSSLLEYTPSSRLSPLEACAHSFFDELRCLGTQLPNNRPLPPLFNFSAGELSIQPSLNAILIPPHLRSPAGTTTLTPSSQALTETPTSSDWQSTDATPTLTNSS
Sequence of FYNb (P06241 1-534 isoform P06241-2): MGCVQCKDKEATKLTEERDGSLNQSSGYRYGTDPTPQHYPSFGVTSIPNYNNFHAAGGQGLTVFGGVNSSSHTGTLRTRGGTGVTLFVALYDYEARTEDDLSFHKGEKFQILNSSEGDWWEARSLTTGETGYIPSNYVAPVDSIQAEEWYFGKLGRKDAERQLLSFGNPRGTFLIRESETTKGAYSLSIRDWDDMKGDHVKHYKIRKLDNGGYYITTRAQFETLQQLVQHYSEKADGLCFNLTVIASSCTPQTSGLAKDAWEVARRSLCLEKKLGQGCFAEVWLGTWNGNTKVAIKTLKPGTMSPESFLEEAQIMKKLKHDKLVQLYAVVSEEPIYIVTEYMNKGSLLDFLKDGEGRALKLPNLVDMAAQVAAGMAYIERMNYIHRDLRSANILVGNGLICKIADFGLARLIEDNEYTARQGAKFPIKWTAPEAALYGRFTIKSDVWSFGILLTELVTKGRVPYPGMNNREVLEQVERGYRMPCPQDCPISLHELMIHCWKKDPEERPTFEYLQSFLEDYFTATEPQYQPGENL
Sequence of EPHA1 (P21709 26-976): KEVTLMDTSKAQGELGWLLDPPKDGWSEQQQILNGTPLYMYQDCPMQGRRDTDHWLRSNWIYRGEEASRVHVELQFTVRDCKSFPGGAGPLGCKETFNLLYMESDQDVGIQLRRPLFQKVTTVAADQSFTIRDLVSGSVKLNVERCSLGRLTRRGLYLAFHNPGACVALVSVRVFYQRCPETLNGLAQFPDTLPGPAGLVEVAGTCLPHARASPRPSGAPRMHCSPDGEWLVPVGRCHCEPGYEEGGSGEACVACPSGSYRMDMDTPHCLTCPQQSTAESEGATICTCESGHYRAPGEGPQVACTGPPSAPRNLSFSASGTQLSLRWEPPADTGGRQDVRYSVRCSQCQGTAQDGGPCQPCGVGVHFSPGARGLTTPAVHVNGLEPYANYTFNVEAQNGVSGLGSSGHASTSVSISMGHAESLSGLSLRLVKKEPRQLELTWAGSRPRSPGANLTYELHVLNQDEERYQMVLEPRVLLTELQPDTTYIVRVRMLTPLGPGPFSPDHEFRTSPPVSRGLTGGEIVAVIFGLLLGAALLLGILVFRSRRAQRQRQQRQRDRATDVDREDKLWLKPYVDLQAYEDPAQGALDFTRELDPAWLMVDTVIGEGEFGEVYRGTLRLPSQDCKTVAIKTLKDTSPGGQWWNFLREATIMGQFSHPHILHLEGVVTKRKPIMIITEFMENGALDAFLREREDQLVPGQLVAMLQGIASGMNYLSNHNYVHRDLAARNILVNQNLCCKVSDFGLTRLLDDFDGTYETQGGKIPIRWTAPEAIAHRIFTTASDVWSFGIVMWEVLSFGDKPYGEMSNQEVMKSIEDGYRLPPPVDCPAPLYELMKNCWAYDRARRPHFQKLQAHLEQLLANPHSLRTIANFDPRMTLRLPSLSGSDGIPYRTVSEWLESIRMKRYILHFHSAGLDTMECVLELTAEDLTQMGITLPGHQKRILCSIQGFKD

Structure (SMILES): C=CC(=O)Nc1ccccc1Nc1ncc2c(n1)N(CCCN1CCN(C(=O)C=C)CC1)C(=O)N(c1cc(OC)cc(OC)c1)C2 [CXF-009]
- inhibition at 1 µM (DDR2): 2.15%
- inhibition at 1 µM (JNK1): -4.4%
- inhibition at 1 µM (PAK2): 3.22%
- inhibition at 1 µM (HPK1): -2.36%
- half-life at 2 µg/mL ([1]; human plasma): 3.73 h
- R squared ([1]; human plasma): 0.9969
- Slope ([1]; human plasma): −0.1859
- half-life at 2 µg/mL ([1]; rat plasma): 4.99 h
- R squared ([1]; rat plasma): 0.9935
- Slope ([1]; rat plasma): −0.1388
- inhibition at 1 µM (CHK2): -3.02%
- inhibition at 1 µM (Erk5): 14%
- inhibition at 1 µM (PIM2): 2.38%
- inhibition at 1 µM (FGR): -1.1%
- inhibition at 1 µM (FYNb): -2.49%
- inhibition at 1 µM (PIM3): 17.5%
- inhibition at 1 µM (EPHA1): 2.15%
- inhibition at 1 µM (HIPK3): -4.6%
- inhibition at 1 µM (TGFbR1): 1.08%
- inhibition at 1 µM (TRKB): 42.1%
- inhibition at 1 µM (GSK3α): 5.79%
- inhibition at 1 µM (KHS): 4.11%
- inhibition at 1 µM (AKT1): 3.98%
- inhibition at 1 µM (CDK2/CycA2): -2.58%
- inhibition at 1 µM (YSK1): -8.51%
- inhibition at 1 µM (SRM): 5.29%
- inhibition at 1 µM (Pkca): 1.73%
- inhibition at 1 µM (ROCK1): 5.09%
- inhibition at 1 µM (EGFR): -16.3%
- inhibition at 1 µM (MAPKAPK2): 0.15%
- inhibition at 1 µM (MET): 2.65%
- IC50 (Hep3B): 0.895 µM
- inhibition at 1 µM (Her4(ERBB4)): 0.69%
- inhibition at 1 µM (LCK): -3.46%
- inhibition at 1 µM (ABL2): 1.61%
- inhibition at 1 µM (BRAF): -0.93%
- inhibition at 1 µM (NPM1-ALK): 0.37%
- inhibition at 1 µM (FGFR3): 11.1%
- inhibition at 1 µM (CDK6/CycD1): -9.58%
- inhibition at 1 µM (FLT1 (VEGFR1)): 5.91%
- inhibition at 1 µM (EPHA6): 5.28%
- inhibition at 1 µM (PIK3CB/PIK3R1): 0.17%

From paper PMC9814781, “Structure-based design of a dual-warhead covalent inhibitor of FGFR4” (Communications Chemistry, 2022)
